Measured values as given in the CheMixHub viscosity set.
“And” between values parts separate entries of the source, which are not always exact repeats. Equal values may be shown once.

Test: xn = mol fraction of the nth substance listed

CC(C)[C@H](NC(=O)[C@H](C)N)C(=O)O + O
viscosity [mPa·s], 101 kPa
Conditions	x1 = 3.62e-05	x1 = 7.46e-05	x1 = 0.000109	x1 = 0.000142	x1 = 0.0001835	x1 = 0.0002124	x1 = 0.0002514	x1 = 0.0002793	x1 = 0.0003251	x1 = 0.0003549
305.15 K	0.7756	0.7779	0.7783	0.7805	0.7822	0.7866	0.7955	0.8038	0.8095	0.8143
310.15 K	0.7078	0.7083	0.7121	0.7125	0.7162	0.7192	0.7239	0.7284	0.7327	0.7351
315.15 K	0.647	0.6501	0.6523	0.6554	0.6591	0.6601	0.6623	0.6675	0.6689	0.6701

CC(O)CN(CC(C)O)CC(C)O (stereo not drawn) + O
viscosity [mPa·s], 101 kPa
Conditions	303.15 K	313.15 K	318.15 K
x1 = 0.005	–	–	0.7315
x1 = 0.03	2.395	1.775	–

CN1CCNCC1 + O
Conditions	viscosity [mPa·s]
298.15 K, 101 kPa, x1 = 0.1039	10.75

NCc1ccccc1 + O
viscosity [mPa·s]
Conditions	293.15 K	303.15 K	313.15 K	323.15 K
100 kPa, x1 = 0.1	–	2.231	1.725	1.385
100 kPa, x1 = 0.2	–	3.098	2.324	1.793
100 kPa, x1 = 0.3	–	3.387	2.512	1.956
100 kPa, x1 = 0.4	–	3.323	2.51	1.93
100 kPa, x1 = 0.5	–	3.1	2.353	1.831
100 kPa, x1 = 0.6	–	2.669	2.064	1.648
100 kPa, x1 = 0.7	–	2.308	1.823	1.469
100 kPa, x1 = 0.8	–	1.957	1.591	1.309
100 kPa, x1 = 0.9	–	1.681	1.396	1.182
101 kPa, x1 = 0.1003	3.23	2.28	1.7	1.38
101 kPa, x1 = 0.2001	4.4	3.07	2.25	1.78
101 kPa, x1 = 0.3	4.8	3.37	2.48	1.93
101 kPa, x1 = 0.3997	4.63	3.3	2.46	1.91
101 kPa, x1 = 0.5002	4.16	3.05	2.28	1.79
101 kPa, x1 = 0.6	3.57	2.67	2.03	1.63
101 kPa, x1 = 0.7	2.95	2.28	1.78	1.47
101 kPa, x1 = 0.7999	2.48	1.94	1.55	1.3
101 kPa, x1 = 0.9	2.1	1.68	1.36	1.15

O=S(=O)([O-])[O-].[Co+2] + O
viscosity, 101.33 kPa
Conditions	x1 = 0.000905	x1 = 0.002718	x1 = 0.00453	x1 = 0.006344	x1 = 0.008159	x1 = 0.04354	x1 = 0.05633
298.15 K	–	–	–	–	–	3.182 mPa·s	–
308.15 K	0.7454 mPa·s	0.799 mPa·s	0.8405 mPa·s	0.897 mPa·s	0.949 mPa·s	–	–
313.15 K	0.6751 mPa·s	0.7255 mPa·s	0.7615 mPa·s	0.814 mPa·s	0.8555 mPa·s	–	–
323.15 K	0.5699 mPa·s	0.6065 mPa·s	0.642 mPa·s	0.689 mPa·s	0.739 mPa·s	–	3.091 mPa·s and 3.091 mPa·s

CCCCCCCCCCCCCCCCCC + c1ccccc1
101 kPa, x2 = 0.5
Conditions	viscosity [mPa·s]
298 K	2.123
318 K	1.501

O=CN1CCOCC1 + c1ccccc1
298.15 K, 101.3 kPa
Conditions	viscosity [mPa·s]
x2 = 0.03787	6.858
x2 = 0.07912	6.137
x2 = 0.1309	5.329
x2 = 0.22	4.199
x2 = 0.3483	2.992
x2 = 0.4314	2.381
x2 = 0.5526	1.734
x2 = 0.6351	1.413
x2 = 0.7176	1.157
x2 = 0.7536	1.058
x2 = 0.83	0.88
x2 = 0.894	0.767
x2 = 0.9506	0.671

S=C=S + c1ccccc1
298.15 K, 101 kPa
Conditions	viscosity [mPa·s]
x2 = 0.08675	0.376
x2 = 0.3427	0.446
x2 = 0.7541	0.544

O=C1c2ccccc2C(=O)N1c1ccccc1 + c1ccncc1
Conditions	viscosity [mPa·s]
298.15 K, 101 kPa, x1 = 0.0129	0.9606
